Results on 16 compounds are retold here after PubChem BioAssay (NCI).

Molecules are shown by their SMILES.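 Where inhibition never reached the appropriate level, the endpoint shown equals the highest concentration tested. Otherwise, values were interpolated linearly from a five-concentration, 48-hour dose response in 96-well plates. The concentration for full growth arrest is given as TGI.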

Test systems include UACC-257 melanoma; NCI-H226 lung; SF-295 CNS; SW-620 colon; HL-60(TB) leukemia; IGROV1 ovarian; CCRF-CEM leukemia; ACHN renal; SR leukemia; MDA-MB-231 breast; A498 renal; OVCAR-8 ovarian; MOLT-4 leukemia; HCC-2998 colon; NCI-H522 lung.
Assay in all cases: NCI anticancer screen, dose series, 48 h

Regarding `O=c1[nH]c2ccccc2c(=O)n1/N=C/c1ccc(O)cc1`, the TGI in the test with UACC-257 melanoma, in the test on NCI-H226 lung, in the test with SF-295 CNS, in the test with SW-620 colon, in the test with HL-60(TB) leukemia and in the test on IGROV1 ovarian was above 100 µM throughout. The TGI in the test with CCRF-CEM leukemia, with ACHN renal, in the test with SR leukemia, in the test on MDA-MB-231 breast, in the test with A498 renal and with OVCAR-8 ovarian was above 100 µM throughout. Further, the TGI with MOLT-4 leukemia was above 100 µM.

As for `OC(c1ccc(F)cc1)C(F)(F)c1nc2ccccc2o1` (configuration not stated), the TGI in the test on UACC-257 melanoma, in the test with NCI-H226 lung, with SF-295 CNS, in the test on SW-620 colon, in the test on HL-60(TB) leukemia and in the test on IGROV1 ovarian was above 100 µM throughout. Moreover, the TGI in the test with CCRF-CEM leukemia, with HCC-2998 colon, in the test with ACHN renal, in the test on SR leukemia, in the test on MDA-MB-231 breast and in the test with A498 renal was above 100 µM each time. Further, the TGI in the test with OVCAR-8 ovarian and in the test with MOLT-4 leukemia was above 100 µM throughout.

Regarding `N#CC(C(=O)c1cccnc1Cl)c1nc2cc(C(F)(F)F)ccc2s1` (configuration not stated), the TGI in the test with UACC-257 melanoma is above 100 µM; with NCI-H226 lung, above 100 µM; in the test on SF-295 CNS it was above 100 µM; in the test with SW-620 colon, above 100 µM; in the test with IGROV1 ovarian it was above 100 µM; in the test on NCI-H522 lung, 61.4 µM. Further, the TGI with ACHN renal is above 100 µM; in the test with MDA-MB-231 breast, above 100 µM; in the test with A498 renal it was 87 µM; in the test on OVCAR-8 ovarian, above 100 µM; in the test on MOLT-4 leukemia it was above 100 µM.

In the case of `O=C(c1ccccc1)c1c(CC(O)c2ccccn2)n(C(=O)c2ccccc2)c2ccccc12` (configuration not stated), the TGI in the test on UACC-257 melanoma was 43.6 µM; in the test on NCI-H226 lung it was 54 µM; in the test on SF-295 CNS it was 84.8 µM; in the test with SW-620 colon, above 100 µM; in the test with IGROV1 ovarian, above 100 µM; in the test on NCI-H522 lung, 47.2 µM. Also, the TGI amounted to 80.5 µM in the test on CCRF-CEM leukemia; 67.7 µM in the test with HCC-2998 colon; 96.6 µM in the test with ACHN renal; 50 µM in the test on SR leukemia; 95.8 µM in the test on OVCAR-8 ovarian; 63.6 µM in the test on MOLT-4 leukemia.

As for `COc1ccc(C2=C(Cl)c3cc(OC)c(OC)cc3C2OC)cc1OC` (configuration not stated), the TGI in the test on UACC-257 melanoma is above 100 µM; in the test with NCI-H226 lung, above 100 µM; in the test on SF-295 CNS, above 100 µM; with SW-620 colon it was 49.2 µM; in the test with HL-60(TB) leukemia, above 100 µM; in the test on IGROV1 ovarian, above 100 µM. For the same compound, the TGI in the test on NCI-H522 lung, in the test on CCRF-CEM leukemia, in the test with HCC-2998 colon, with ACHN renal, with A498 renal and with OVCAR-8 ovarian was above 100 µM in each case. This compound also came in with a TGI with MOLT-4 leukemia above 100 µM.

With `Cc1ccc(S(=O)(=O)NC(=O)NCCc2cnc[nH]2)cc1`, the TGI in the test on NCI-H226 lung, with SF-295 CNS, in the test with SW-620 colon, with HL-60(TB) leukemia, in the test with IGROV1 ovarian and in the test with NCI-H522 lung was above 100 µM each time. The TGI in the test with HCC-2998 colon, in the test with ACHN renal, in the test with SR leukemia, in the test on MDA-MB-231 breast, with A498 renal and in the test with OVCAR-8 ovarian was above 100 µM in each case. This compound also had a TGI in the test on MOLT-4 leukemia above 100 µM.

On to `CCN(CC)C(=O)Cc1c(C(=O)N(CC)CC)c(=O)nc2sccn12`, for which the TGI with UACC-257 melanoma, with NCI-H226 lung, in the test with SF-295 CNS, with SW-620 colon, in the test on HL-60(TB) leukemia and in the test with IGROV1 ovarian was above 100 µM in each case. Further, the TGI in the test on NCI-H522 lung, with CCRF-CEM leukemia, in the test on HCC-2998 colon, with ACHN renal, in the test on SR leukemia and in the test with A498 renal was above 100 µM each time. In addition, the TGI in the test on OVCAR-8 ovarian and in the test on MOLT-4 leukemia was above 100 µM in each case.

As to `CCN(CC)c1cccc2c1/C(=N/O)CCCC2`, the TGI in the test with UACC-257 melanoma, in the test on NCI-H226 lung, in the test on SF-295 CNS, with SW-620 colon, in the test with HL-60(TB) leukemia and with NCI-H522 lung was above 100 µM throughout. Moreover, the TGI with CCRF-CEM leukemia, with ACHN renal, in the test with SR leukemia, with OVCAR-8 ovarian and in the test on MOLT-4 leukemia was above 100 µM in each case.

For `CCOC(=O)c1c(N)n(-c2ccccc2)c(=O)n(-c2ccccc2)c1=O`, the TGI in the test with UACC-257 melanoma, in the test on NCI-H226 lung, in the test with SF-295 CNS, with SW-620 colon, with HL-60(TB) leukemia and with IGROV1 ovarian was above 100 µM throughout. For the same compound, the TGI in the test with NCI-H522 lung, in the test with HCC-2998 colon, in the test on ACHN renal, in the test on SR leukemia, in the test with MDA-MB-231 breast and with OVCAR-8 ovarian was above 100 µM in each case. This compound had a TGI in the test on MOLT-4 leukemia above 100 µM.

For `COc1ccccc1NC(=S)N/N=C/c1c(C)n(C)n(-c2ccccc2)c1=O`, the TGI with UACC-257 melanoma, in the test on NCI-H226 lung, with SF-295 CNS, with SW-620 colon, in the test on HL-60(TB) leukemia and in the test on IGROV1 ovarian was above 100 µM each time. For the same compound, the TGI in the test on CCRF-CEM leukemia, in the test with HCC-2998 colon, in the test with ACHN renal, in the test with SR leukemia, with MDA-MB-231 breast and in the test on A498 renal was above 100 µM each time. The TGI in the test with OVCAR-8 ovarian and in the test on MOLT-4 leukemia was above 100 µM in each case.

With `COC(=O)C1CCc2c1c(=O)n1c([nH]c3ccccc31)c2C#N` (configuration not stated), the TGI with UACC-257 melanoma, with NCI-H226 lung, in the test on SF-295 CNS, in the test on SW-620 colon, in the test on HL-60(TB) leukemia and in the test with IGROV1 ovarian was above 100 µM each time. In addition, the TGI in the test on NCI-H522 lung, in the test on CCRF-CEM leukemia, with HCC-2998 colon, in the test with ACHN renal, in the test with A498 renal and with OVCAR-8 ovarian was above 100 µM throughout.

As for `CC(C)OP(=O)(OC(C)C)/C(Cl)=N/Nc1ccc([N+](=O)[O-])cc1`, the TGI in the test on UACC-257 melanoma, in the test with SW-620 colon, in the test with HL-60(TB) leukemia, with NCI-H522 lung, in the test on CCRF-CEM leukemia and with HCC-2998 colon was above 100 µM each time. The TGI in the test on ACHN renal, in the test on SR leukemia, with A498 renal, in the test on OVCAR-8 ovarian and with MOLT-4 leukemia was above 100 µM throughout.

With `Nc1nc2c3nc(Nc4ccccc4)sc3nc(=S)n2c2sc(Nc3ccccc3)nc12`, the TGI with UACC-257 melanoma, with NCI-H226 lung, with SF-295 CNS, with SW-620 colon, in the test on HL-60(TB) leukemia and in the test on IGROV1 ovarian was above 100 µM each time. Also, the TGI in the test with NCI-H522 lung, in the test with HCC-2998 colon, with ACHN renal, in the test on SR leukemia, in the test with A498 renal and in the test on OVCAR-8 ovarian was above 100 µM each time.

In the case of `COP(=O)(OC)C(=O)N1N(c2ccc([N+](=O)[O-])cc2)C(=O)C(C)NC1(NNc1ccc([N+](=O)[O-])cc1)P(=O)(OC)OC` (configuration not stated), the TGI with UACC-257 melanoma, in the test on NCI-H226 lung, in the test with SW-620 colon, in the test on HL-60(TB) leukemia, with IGROV1 ovarian and in the test on NCI-H522 lung was above 100 µM in each case. Moreover, the TGI with CCRF-CEM leukemia, in the test with HCC-2998 colon, in the test with ACHN renal, in the test with SR leukemia, with A498 renal and with OVCAR-8 ovarian was above 100 µM throughout. Further, the TGI in the test on MOLT-4 leukemia was above 100 µM.

Consider `O=C(O)CN1C=C(C(=O)c2cc3ccccc3n2S(=O)(=O)c2ccccc2)CCC1`, for which the TGI in the test with UACC-257 melanoma was above 100 µM; in the test with NCI-H226 lung, above 100 µM; in the test on SF-295 CNS it was above 100 µM; in the test with SW-620 colon, above 100 µM; in the test with HL-60(TB) leukemia, 71.5 µM; in the test with IGROV1 ovarian, above 100 µM. Besides, the TGI in the test with CCRF-CEM leukemia, in the test with HCC-2998 colon, in the test with ACHN renal, with SR leukemia, in the test with MDA-MB-231 breast and with A498 renal was above 100 µM in each case. In addition, the TGI in the test with OVCAR-8 ovarian and in the test with MOLT-4 leukemia was above 100 µM throughout.

For the compound `COC(=O)CC(NC(=O)OCc1ccccc1)C(C(C)=O)C(=O)OCc1ccccc1` (configuration not stated), the TGI in the test with UACC-257 melanoma was above 31.6 µM; in the test with SF-295 CNS, above 100 µM; with SW-620 colon it was above 31.6 µM; in the test on HL-60(TB) leukemia, above 31.6 µM; in the test with IGROV1 ovarian it was above 31.6 µM; with NCI-H522 lung it was above 31.6 µM. Besides, the TGI in the test with CCRF-CEM leukemia is above 31.6 µM; with ACHN renal it was above 31.6 µM; in the test with SR leukemia it was above 100 µM; with A498 renal, above 31.6 µM; with OVCAR-8 ovarian, above 31.6 µM; with MOLT-4 leukemia, above 31.6 µM.
